Results reported in article PMC8776995 (Frontiers in Chemistry, 2022).
Several values for one entry are separate records, joined by “and”; a condition that tells them apart may be missing. Equal values may be shown once. Read-outs that look alike come from different tables or passages of the source. Each block holds one compound with its values, some of them ahead of it.

What was measured:
[1] = system: H1975 cells; experiment: CCK-8 antiproliferation assay, H1975; conditions: for Inhibitory efficacy: H1975 cells; for Inhibitory efficacy / inhibition at 1 µM / inhibition at 2 µM / inhibition at 4 µM / inhibition at 8 µM / inhibition at 16 µM: given as fraction, Repeat 1-3; for IC50 / inhibition at 1 µM / inhibition at 2 µM / inhibition at 4 µM / inhibition at 8 µM / inhibition at 16 µM: Homo sapiens; for IC50: NCI-H1975, 48 h, read-out: IC50 (μM) H1975, CCK-8, 48 h, average ± SD of three independent experiments; for inhibition at 1 µM / inhibition at 2 µM / inhibition at 4 µM / inhibition at 8 µM / inhibition at 16 µM: NCI-H1975, read-out: Inhibitory efficacy, H1975 cells
[2] = target: wild-type EGFR (Homo sapiens, UniProt P00533); experiment: EGFR kinase assay (ELISA); conditions: for IC50: IC50 (μM) EGFR, ELISA, 3 μmol/L ATP; for A450: raw ELISA absorbance
Sequence of wild-type EGFR (P00533 25-1210): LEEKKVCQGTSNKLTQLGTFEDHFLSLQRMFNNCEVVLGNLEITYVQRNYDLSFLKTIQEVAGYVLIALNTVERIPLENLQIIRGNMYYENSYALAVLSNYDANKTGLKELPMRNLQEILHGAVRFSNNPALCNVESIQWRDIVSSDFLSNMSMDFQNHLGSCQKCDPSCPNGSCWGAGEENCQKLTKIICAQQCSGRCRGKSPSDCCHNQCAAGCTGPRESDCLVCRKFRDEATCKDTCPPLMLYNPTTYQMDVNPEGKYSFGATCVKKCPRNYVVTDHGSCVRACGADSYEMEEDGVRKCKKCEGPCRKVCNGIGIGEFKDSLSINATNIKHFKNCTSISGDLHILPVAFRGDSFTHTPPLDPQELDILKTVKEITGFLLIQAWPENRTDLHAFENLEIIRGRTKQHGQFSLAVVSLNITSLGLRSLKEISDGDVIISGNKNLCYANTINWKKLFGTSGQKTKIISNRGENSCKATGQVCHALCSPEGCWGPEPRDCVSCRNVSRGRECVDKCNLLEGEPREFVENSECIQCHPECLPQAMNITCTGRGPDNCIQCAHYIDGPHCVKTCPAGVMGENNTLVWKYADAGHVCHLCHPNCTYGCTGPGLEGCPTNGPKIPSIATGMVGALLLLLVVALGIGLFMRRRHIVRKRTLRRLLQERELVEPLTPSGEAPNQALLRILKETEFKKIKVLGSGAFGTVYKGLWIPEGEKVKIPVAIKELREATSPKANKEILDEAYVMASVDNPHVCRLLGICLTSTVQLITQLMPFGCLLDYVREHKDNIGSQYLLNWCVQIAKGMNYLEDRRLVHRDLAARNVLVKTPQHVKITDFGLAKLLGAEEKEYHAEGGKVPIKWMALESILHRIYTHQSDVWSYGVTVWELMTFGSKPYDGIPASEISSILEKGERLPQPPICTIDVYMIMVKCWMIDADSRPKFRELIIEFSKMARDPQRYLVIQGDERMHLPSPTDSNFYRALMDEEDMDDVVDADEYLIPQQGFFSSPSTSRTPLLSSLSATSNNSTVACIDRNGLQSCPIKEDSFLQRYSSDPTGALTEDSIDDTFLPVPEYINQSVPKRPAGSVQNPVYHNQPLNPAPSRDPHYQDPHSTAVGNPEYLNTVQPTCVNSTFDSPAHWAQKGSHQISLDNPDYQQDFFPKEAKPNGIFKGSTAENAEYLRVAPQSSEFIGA

[3] = system: A549 cells; experiment: CCK-8 antiproliferation assay, A549; conditions: for Inhibitory efficacy: A549 cells; for IC50: A549, 48 h, read-out: IC50 (μM) A549, CCK-8, 48 h, average ± SD of three independent experiments
Method: The compounds were dissolved in DMSO to make a 20 μM stock solution and diluted to the concentration of working solutions with complete growth medium before administration.
Cells were seeded in 96-well plates: 3,000–5,000 cells/well in 100 ul. One day after seeding, the test compounds at concentration between 1.0 and 16.0 μ M or 0.1% DMSO (as control) were added to cells in triplicate. 48 h later, CCK-8 was added and incubated the plate for 1–4 h in the incubator. The absorbance at 450 nm were measured using a microplate reader (Bio-Tek).

[4] = system: PC-9 cells; experiment: CCK-8 antiproliferation assay, PC-9; conditions: for IC50: PC-9, 48 h, read-out: IC50 (μM) PC-9; for Inhibitory efficacy: single repeats (Repeat 1-3), given as fraction
[5] = system: H460 cells; experiment: CCK-8 antiproliferation assay, H460; conditions: for IC50: NCI-H460, 48 h, read-out: IC50 (μM) H460, CCK-8, 48 h, average ± SD of three independent experiments
[6] = 16uM, given as fraction, Repeat 1-3
[7] = Homo sapiens, A549, read-out: Inhibitory efficacy, A549 cells, 16uM, given as fraction, Repeat 1-3

IC50 [1]: 7.5 ± 0.49 µM
IC50 [2]: 10.7 µM
inhibition at 30 pM ([2]; concentration 0.03 nM, one value per replicate column): 3.1%
Inhibition ([2]; concentration 0.03 nM, one value per replicate column, 3e-05 µM): 4.587
inhibition at 0.0003 µM ([2]; concentration 0.3 nM, one value per replicate column): 5.16%
Inhibition ([2]; concentration 0.3 nM, one value per replicate column, 0.0003 µM): 5.242
inhibition at 0.003 µM ([2]; concentration 3 nM, one value per replicate column): 5.55%
Inhibition ([2]; concentration 3 nM, one value per replicate column, 0.003 µM): 6.684
inhibition at 0.03 µM ([2]; concentration 30 nM, one value per replicate column): 10.7%
Inhibition ([2]; concentration 30 nM, one value per replicate column, 0.03 µM): 8.781
inhibition at 0.3 µM ([2]; concentration 300 nM, one value per replicate column): 11.4%
Inhibition ([2]; concentration 300 nM, one value per replicate column, 0.3 µM): 9.699
inhibition at 3 µM ([2]; concentration 3000 nM, one value per replicate column): 22.2%
Inhibition ([2]; concentration 3000 nM, one value per replicate column, 3 µM): 18.3486
inhibition at 30 µM ([2]; concentration 30000 nM, one value per replicate column): 74.1%
Inhibition ([2]; concentration 30000 nM, one value per replicate column, 30 µM): 73.6566
A450 ([2]; concentration 0.0001 nM): 1.058 and 1.062
A450 ([2]; concentration 0.03 nM): 1.034 and 1.027
A450 ([2]; concentration 0.3 nM): 1.018 and 1.022
A450 ([2]; concentration 3 nM): 1.015 and 1.011
A450 ([2]; concentration 30 nM): 0.975 and 0.995
A450 ([2]; concentration 300 nM): 0.97 and 0.988
A450 ([2]; concentration 3000 nM): 0.886 and 0.922
A450 ([2]; concentration 30000 nM): 0.484 and 0.5
IC50 ([3]; Homo sapiens): > 100 µM
IC50 ([4]; Homo sapiens): > 100 µM
melting point: 110 to 114 °C
IC50 ([5]; Homo sapiens): 34.1 ± 2.5 µM
Compound: CCOc1cccc(-n2cc(-c3cccc(Nc4ncnc5cc(OCCOC)c(OCCOC)cc45)c3)nn2)c1 [e14, [6,7-Bis-(2-methoxy-ethoxy)-quinazolin-4-yl]-{3-[1-(3-ethoxy-phenyl)-1H-[1,2,3]triazol-4-yl]-phenyl}-amine]
Inhibitory efficacy ([1]; 1uM): 0.1721 and 0.1925
Inhibitory efficacy ([1]; 2uM): 0.2391 and 0.2224
Inhibitory efficacy ([1]; 4uM): 0.4814 and 0.4311
Inhibitory efficacy ([1]; 8uM): 0.5466 and 0.5764
Inhibitory efficacy ([1]; 16uM): 0.5969 and 0.5615
inhibition at 1 µM ([1]; 1uM): 20.6%
inhibition at 2 µM ([1]; 2uM): 28.4%
inhibition at 4 µM ([1]; 4uM): 34%
inhibition at 8 µM ([1]; 8uM): 58.6%
inhibition at 16 µM ([1]; 16uM): 57.3%
Inhibitory efficacy ([3]; 1uM, given as fraction, Repeat 1-3): 0.06697 and 0.1106
Inhibitory efficacy ([3]; 4uM, given as fraction, Repeat 1-3): 0.2585 and 0.1473
Inhibitory efficacy [3, 6]: 0.1909 and 0.2764
inhibition at 1 µM ([3]; Homo sapiens, A549, read-out: Inhibitory efficacy, A549 cells, 1uM, given as fraction, Repeat 1-3): 8.24%
inhibition at 4 µM ([3]; Homo sapiens, A549, read-out: Inhibitory efficacy, A549 cells, 4uM, given as fraction, Repeat 1-3): 25.4%
inhibition at 16 µM [3, 7]: 26.4%
Inhibitory efficacy ([5]; H460 cells, 2uM, given as fraction, Repeat 1-3): 0.09418 and 0.1351
Inhibitory efficacy ([5]; H460 cells, 8uM, given as fraction, Repeat 1-3): 0.192 and 0.3038
Inhibitory efficacy ([5]; H460 cells, 16uM, given as fraction, Repeat 1-3): 0.3527 and 0.3328
inhibition at 2 µM ([5]; Homo sapiens, NCI-H460, read-out: Inhibitory efficacy, H460 cells, 2uM, given as fraction, Repeat 1-3): 8.02%
inhibition at 8 µM ([5]; Homo sapiens, NCI-H460, read-out: Inhibitory efficacy, H460 cells, 8uM, given as fraction, Repeat 1-3): 25.9%
inhibition at 16 µM ([5]; Homo sapiens, NCI-H460, read-out: Inhibitory efficacy, H460 cells, 16uM, given as fraction, Repeat 1-3): 30.4%

IC50 [1]: 7.19 ± 0.68 µM
inhibition at 0.0003 µM ([2]; 0.3 nM, duplicate wells, calculated from A450): 14.4%
Inhibition ([2]; 0.3 nM, duplicate wells, calculated from A450, 0.0003 µM): 7.895
inhibition at 0.003 µM ([2]; 3 nM, duplicate wells, calculated from A450): 15.7%
Inhibition ([2]; 3 nM, duplicate wells, calculated from A450, 0.003 µM): 18.5965
inhibition at 0.03 µM ([2]; 30 nM, duplicate wells, calculated from A450): 17.9%
Inhibition ([2]; 30 nM, duplicate wells, calculated from A450, 0.03 µM): 21.4035
inhibition at 0.3 µM ([2]; 300 nM, duplicate wells, calculated from A450): 28.8%
Inhibition ([2]; 300 nM, duplicate wells, calculated from A450, 0.3 µM): 23.1579
inhibition at 3 µM ([2]; 3000 nM, duplicate wells, calculated from A450): 43%
Inhibition ([2]; 3000 nM, duplicate wells, calculated from A450, 3 µM): 40.5263
inhibition at 30 µM ([2]; 30000 nM, duplicate wells, calculated from A450): 91%
Inhibition ([2]; 30000 nM, duplicate wells, calculated from A450, 30 µM): 89.8246
IC50 [2]: 1.99 µM
IC50 ([3]; Homo sapiens): 23 ± 0.75 µM
IC50 ([4]; Homo sapiens): > 100 µM
melting point: 131 to 134 °C
IC50 ([5]; Homo sapiens): 4.18 ± 0.49 µM
Compound: COCCOc1cc2ncnc(Nc3cccc(-c4cn(-c5ccccc5Cl)nn4)c3)c2cc1OCCOC [e8, [6,7-Bis-(2-methoxy-ethoxy)-quinazolin-4-yl]-{3-[1-(2-chloro-phenyl)-1H-[1,2,3]triazol-4-yl]-phenyl}-amine]
Inhibitory efficacy ([1]; 1uM): 0.1767 and 0.1612
Inhibitory efficacy ([1]; 2uM): 0.1999 and 0.1391
Inhibitory efficacy ([1]; 4uM): 0.3925 and 0.388
Inhibitory efficacy ([1]; 8uM): 0.5795 and 0.574
Inhibitory efficacy ([1]; 16uM): 0.6879 and 0.6171
inhibition at 1 µM ([1]; 1uM): 16.1%
inhibition at 2 µM ([1]; 2uM): 19.8%
inhibition at 4 µM ([1]; 4uM): 39.9%
inhibition at 8 µM ([1]; 8uM): 51.1%
inhibition at 16 µM ([1]; 16uM): 64.1%
Inhibitory efficacy ([3]; 8uM, given as fraction, Repeat 1-3): 0.2217 and 0.2238
Inhibitory efficacy [3, 6]: 0.3678 and 0.3836
inhibition at 8 µM ([3]; Homo sapiens, A549, read-out: Inhibitory efficacy, A549 cells, 8uM, given as fraction, Repeat 1-3): 18.4%
inhibition at 16 µM [3, 7]: 42.9%
inhibition at 4 µM ([4]; Homo sapiens, PC-9, read-out: Inhibitory efficacy, PC-9, 4uM, single repeats (Repeat 1-3), given as fraction): 17.4%
inhibition at 8 µM ([4]; Homo sapiens, PC-9, read-out: Inhibitory efficacy, PC-9, 8uM, single repeats (Repeat 1-3), given as fraction): 26.3%
inhibition at 16 µM ([4]; Homo sapiens, PC-9, read-out: Inhibitory efficacy, PC-9, 16uM, single repeats (Repeat 1-3), given as fraction): 13.4%
Inhibitory efficacy ([4]; PC-9, 4uM, 4 µM): 0.2895 and 0.3075
Inhibitory efficacy ([4]; PC-9, 8uM, 8 µM): 0.1686 and 0.3213
Inhibitory efficacy ([4]; PC-9, 16uM, 16 µM): 0.1771 and 0.2089
Inhibitory efficacy ([5]; H460, 1uM, single repeats (Repeat 1-3), given as fraction, 1 µM): 0.1177 and 0.197
Inhibitory efficacy ([5]; H460, 2uM, single repeats (Repeat 1-3), given as fraction, 2 µM): 0.3433 and 0.3114
Inhibitory efficacy ([5]; H460, 4uM, single repeats (Repeat 1-3), given as fraction, 4 µM): 0.6025 and 0.5869
Inhibitory efficacy ([5]; H460, 8uM, single repeats (Repeat 1-3), given as fraction, 8 µM): 0.6548 and 0.6973
Inhibitory efficacy ([5]; H460, 16uM, single repeats (Repeat 1-3), given as fraction, 16 µM): 0.6875 and 0.7414
inhibition at 1 µM ([5]; Homo sapiens, NCI-H460, read-out: Inhibitory efficacy, H460, 1uM, single repeats (Repeat 1-3), given as fraction): 14.2%
inhibition at 2 µM ([5]; Homo sapiens, NCI-H460, read-out: Inhibitory efficacy, H460, 2uM, single repeats (Repeat 1-3), given as fraction): 35.8%
inhibition at 4 µM ([5]; Homo sapiens, NCI-H460, read-out: Inhibitory efficacy, H460, 4uM, single repeats (Repeat 1-3), given as fraction): 48.3%
inhibition at 8 µM ([5]; Homo sapiens, NCI-H460, read-out: Inhibitory efficacy, H460, 8uM, single repeats (Repeat 1-3), given as fraction): 66.5%
inhibition at 16 µM ([5]; Homo sapiens, NCI-H460, read-out: Inhibitory efficacy, H460, 16uM, single repeats (Repeat 1-3), given as fraction): 66.8%
